Test results published in ChEMBL document CHEMBL3797052 (Eur J Med Chem, 2016).

system: SN12C; test: Antiproliferative activity against human SN12C cells assessed as cell growth at 10^-7 M after 48 hrs by sulforhodamine B assay; format: functional; conditions: read-out: Activity

Row | SMILES | growth at 0.1 µM
1 | CNC(=O)c1cc(Oc2ccc3nc(NC(=O)Nc4cc(C(F)(F)F)cc(C(F)(F)F)c4)sc3c2)ccn1 | 104%

system: not listed separately; test: Antiproliferative activity against human SKOV3 cells assessed as cell growth at 10^-7 M after 48 hrs by sulforhodamine B assay; format: functional; conditions: SK-OV-3, 48 h, read-out: Activity

Row | SMILES | growth at 0.1 µM
2 | CNC(=O)c1cc(Oc2ccc3nc(NC(=O)Nc4cc(C(F)(F)F)cc(C(F)(F)F)c4)sc3c2)ccn1 | 99%

system: SR; test: Antiproliferative activity against human SR cells assessed as cell growth at 10^-7 M after 48 hrs by sulforhodamine B assay; format: functional; conditions: read-out: Activity

Row | SMILES | growth at 0.1 µM
3 | CNC(=O)c1cc(Oc2ccc3nc(NC(=O)Nc4cc(C(F)(F)F)cc(C(F)(F)F)c4)sc3c2)ccn1 | 91%

system: not listed separately; test: Antiproliferative activity against human SNB19 cells assessed as growth inhibition after 48 hrs by sulforhodamine B assay; format: functional; conditions: SNB-19, 48 h

Row | SMILES | GI50 | LC50 (50% lethal concentration) | TGI
4 | CNC(=O)c1cc(Oc2ccc3nc(NC(=O)Nc4cc(C(F)(F)F)cc(C(F)(F)F)c4)sc3c2)ccn1 | 1340 nM | > 100000 nM | 4430 nM

system: NCI-H226; test: Antiproliferative activity against human NCI-H226 cells assessed as cell growth at 10^-7 M after 48 hrs by sulforhodamine B assay; format: functional; conditions: NCI-H226, 48 h, read-out: Activity

Row | SMILES | growth at 0.1 µM
5 | CNC(=O)c1cc(Oc2ccc3nc(NC(=O)Nc4cc(C(F)(F)F)cc(C(F)(F)F)c4)sc3c2)ccn1 | 87%

system: MCF7; test: Antiproliferative activity against human MCF7 cells assessed as cell growth at 10^-8 M after 48 hrs by sulforhodamine B assay; format: functional; conditions: MCF7, 48 h, read-out: Activity

Row | SMILES | growth at 0.01 µM
6 | CNC(=O)c1cc(Oc2ccc3nc(NC(=O)Nc4cc(C(F)(F)F)cc(C(F)(F)F)c4)sc3c2)ccn1 | 85%

system: not listed separately; test: Antiproliferative activity against human SF295 cells assessed as cell growth at 10^-4 M after 48 hrs by sulforhodamine B assay; format: functional; conditions: SF-295, 48 h, read-out: Activity

Row | SMILES | growth at 100 µM
7 | CNC(=O)c1cc(Oc2ccc3nc(NC(=O)Nc4cc(C(F)(F)F)cc(C(F)(F)F)c4)sc3c2)ccn1 | -71%

system: not listed separately; test: Antiproliferative activity against human HCT15 cells assessed as cell growth at 10^-8 M after 48 hrs by sulforhodamine B assay; format: functional; conditions: HCT-15, 48 h, read-out: Activity

Row | SMILES | growth at 0.01 µM
8 | CNC(=O)c1cc(Oc2ccc3nc(NC(=O)Nc4cc(C(F)(F)F)cc(C(F)(F)F)c4)sc3c2)ccn1 | 88%

system: not listed separately; test: Antiproliferative activity against human SF295 cells assessed as growth inhibition after 48 hrs by sulforhodamine B assay; format: functional; conditions: SF-295, 48 h

Row | SMILES | GI50 | TGI
9 | CNC(=O)c1cc(Oc2ccc3nc(NC(=O)Nc4cc(C(F)(F)F)cc(C(F)(F)F)c4)sc3c2)ccn1 | 1080 nM | 2410 nM

same assay, conditions: SF-295, 48 h, read-out: LC50 (the source's name)

Row | SMILES | CC50
10 | CNC(=O)c1cc(Oc2ccc3nc(NC(=O)Nc4cc(C(F)(F)F)cc(C(F)(F)F)c4)sc3c2)ccn1 | 5380 nM

system: not listed separately; test: Antiproliferative activity against human UACC62 cells assessed as cell growth at 10^-7 M after 48 hrs by sulforhodamine B assay; format: functional; conditions: UACC-62, 48 h, read-out: Activity

Row | SMILES | growth at 0.1 µM
11 | CNC(=O)c1cc(Oc2ccc3nc(NC(=O)Nc4cc(C(F)(F)F)cc(C(F)(F)F)c4)sc3c2)ccn1 | 93%

system: MDA-MB-435; test: Antiproliferative activity against human MDA-MB-435 cells assessed as cell growth at 10^-8 M after 48 hrs by sulforhodamine B assay; format: functional; conditions: MDA-MB-435, 48 h, read-out: Activity

Row | SMILES | growth at 0.01 µM
12 | CNC(=O)c1cc(Oc2ccc3nc(NC(=O)Nc4cc(C(F)(F)F)cc(C(F)(F)F)c4)sc3c2)ccn1 | 92%

system: K562; test: Antiproliferative activity against human K562 cells assessed as cell growth at 10^-4 M after 48 hrs by sulforhodamine B assay; format: functional; conditions: K562, 48 h, read-out: Activity

Row | SMILES | growth at 100 µM
13 | CNC(=O)c1cc(Oc2ccc3nc(NC(=O)Nc4cc(C(F)(F)F)cc(C(F)(F)F)c4)sc3c2)ccn1 | -35%

system: M14; test: Antiproliferative activity against human M14 cells assessed as cell growth at 10^-6 M after 48 hrs by sulforhodamine B assay; format: functional; conditions: M14, 48 h, read-out: Activity

Row | SMILES | growth at 1 µM
14 | CNC(=O)c1cc(Oc2ccc3nc(NC(=O)Nc4cc(C(F)(F)F)cc(C(F)(F)F)c4)sc3c2)ccn1 | 77%

system: not listed separately; test: Antiproliferative activity against human UACC257 cells assessed as cell growth at 10^-8 M after 48 hrs by sulforhodamine B assay; format: functional; conditions: UACC-257, 48 h, read-out: Activity

Row | SMILES | growth at 0.01 µM
15 | CNC(=O)c1cc(Oc2ccc3nc(NC(=O)Nc4cc(C(F)(F)F)cc(C(F)(F)F)c4)sc3c2)ccn1 | 102%

system: ACHN; test: Antiproliferative activity against human ACHN cells assessed as cell growth at 10^-6 M after 48 hrs by sulforhodamine B assay; format: functional; conditions: read-out: Activity

Row | SMILES | growth at 1 µM
16 | CNC(=O)c1cc(Oc2ccc3nc(NC(=O)Nc4cc(C(F)(F)F)cc(C(F)(F)F)c4)sc3c2)ccn1 | 32%

system: not listed separately; test: Antiproliferative activity against human HOP62 cells assessed as cell growth at 10^-6 M after 48 hrs by sulforhodamine B assay; format: functional; conditions: HOP-62, 48 h, read-out: Activity

Row | SMILES | growth at 1 µM
17 | CNC(=O)c1cc(Oc2ccc3nc(NC(=O)Nc4cc(C(F)(F)F)cc(C(F)(F)F)c4)sc3c2)ccn1 | 58%

system: not listed separately; test: Antiproliferative activity against human COLO205 cells assessed as growth inhibition after 48 hrs by sulforhodamine B assay; format: functional; conditions: COLO 205, 48 h

Row | SMILES | GI50 | TGI
18 | CNC(=O)c1cc(Oc2ccc3nc(NC(=O)Nc4cc(C(F)(F)F)cc(C(F)(F)F)c4)sc3c2)ccn1 | 822 nM | 2320 nM

same assay, conditions: COLO 205, 48 h, read-out: LC50 (the source's name)

Row | SMILES | CC50
19 | CNC(=O)c1cc(Oc2ccc3nc(NC(=O)Nc4cc(C(F)(F)F)cc(C(F)(F)F)c4)sc3c2)ccn1 | 5820 nM
